This passage reports IC50 results from the Kinase Knowledgebase extract (Sharma et al. 2016).

≈ marks a conversion by molar mass, not a printed value.

This test addresses EGFR (UniProt P00533).

EGFR, sequence (P00533 whole entry, looked up): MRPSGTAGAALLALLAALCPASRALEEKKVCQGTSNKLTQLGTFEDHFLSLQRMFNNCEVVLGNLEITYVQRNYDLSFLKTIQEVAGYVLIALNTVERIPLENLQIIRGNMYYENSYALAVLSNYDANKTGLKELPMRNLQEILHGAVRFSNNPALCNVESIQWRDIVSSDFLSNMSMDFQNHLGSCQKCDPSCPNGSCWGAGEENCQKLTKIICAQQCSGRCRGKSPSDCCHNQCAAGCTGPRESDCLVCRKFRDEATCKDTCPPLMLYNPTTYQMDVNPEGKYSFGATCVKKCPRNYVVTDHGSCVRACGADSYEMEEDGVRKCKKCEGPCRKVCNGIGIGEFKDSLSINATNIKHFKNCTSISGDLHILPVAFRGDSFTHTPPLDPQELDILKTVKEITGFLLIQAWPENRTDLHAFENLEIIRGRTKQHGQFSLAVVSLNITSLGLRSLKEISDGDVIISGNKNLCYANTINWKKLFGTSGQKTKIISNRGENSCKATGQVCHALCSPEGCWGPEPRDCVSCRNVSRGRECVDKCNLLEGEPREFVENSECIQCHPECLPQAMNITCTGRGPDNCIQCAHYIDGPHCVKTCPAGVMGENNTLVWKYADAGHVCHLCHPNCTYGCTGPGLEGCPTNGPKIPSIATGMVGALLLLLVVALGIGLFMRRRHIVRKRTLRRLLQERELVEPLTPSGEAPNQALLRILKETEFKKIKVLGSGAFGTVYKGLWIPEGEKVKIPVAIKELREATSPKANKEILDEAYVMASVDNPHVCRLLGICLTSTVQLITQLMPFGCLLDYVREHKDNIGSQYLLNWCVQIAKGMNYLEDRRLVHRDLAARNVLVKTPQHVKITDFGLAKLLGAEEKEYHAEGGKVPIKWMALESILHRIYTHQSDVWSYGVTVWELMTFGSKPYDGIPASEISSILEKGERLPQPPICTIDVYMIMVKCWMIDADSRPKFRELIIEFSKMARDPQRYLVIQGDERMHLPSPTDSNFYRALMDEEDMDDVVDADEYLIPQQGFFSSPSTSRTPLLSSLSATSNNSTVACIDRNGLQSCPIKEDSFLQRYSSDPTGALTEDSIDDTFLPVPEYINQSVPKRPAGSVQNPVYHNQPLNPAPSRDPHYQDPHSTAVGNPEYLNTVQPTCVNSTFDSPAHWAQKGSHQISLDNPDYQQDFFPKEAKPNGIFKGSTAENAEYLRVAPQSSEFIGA

`CC(C)(C)OC(=O)NCCCNc1ncnc(-c2ccccc2)n1` registered an IC50 of more than 4.5 mg/L.

Regarding `Fc1ccc(CNc2ncccc2-c2ncnc(Nc3cccc(Cn4ccnn4)c3)n2)cc1`, the IC50 fell in the range of 2.4 to 3.5 mg/L (≈ 5.29 to 7.72 µM).

As for `O=C(O)CCc1cccc(Nc2ncnc(Nc3cc(-c4ccco4)[nH]n3)n2)c1`, the IC50 was less than 0.4 mg/L.

In turn, `COc1cc(Nc2ncnc(Nc3cc(C)c(O)cc3C)n2)cc(OC)c1OC` came in with an IC50 of less than 0.4 mg/L.

As to `COc1ccc(CNc2nc3ccccc3n2-c2ncnc(Nc3cc(OC)c(OC)c(OC)c3)n2)cc1OC`, the IC50 lay within 2.4 to 3.5 mg/L (≈ 4.42 to 6.44 µM).

In the case of `COc1cc(Nc2ncnc(Nc3ncnc4[nH]cnc34)n2)cc(OC)c1OC`, the IC50 is more than 4.5 mg/L.

Take `COc1cc(Nc2ncnc(NC(=O)NCc3ccccc3)n2)cc(OC)c1OC`: the IC50 was 0.4 to 2.4 mg/L (≈ 0.975 to 5.85 µM).

Regarding `Nc1ncnc(-n2c(N)nc3ccccc32)n1`, the IC50 is more than 4.5 mg/L.

On to `COCCNc1ncnc(Nc2cc(-c3ccc(C(=O)OC)cc3)n[nH]2)n1`, for which the IC50 is more than 4.5 mg/L.

For the compound `CC(=O)N1CCc2cc(Nc3ncnc(N4CCCc5cc(C)ccc54)n3)ccc21`, the IC50 is less than 0.4 mg/L.

In turn, `COc1cc2ccn(-c3ncnc(Nc4cc(OC)c(OC)c(OC)c4)n3)c2cc1OC` came in with an IC50 of 3.5 to 4.5 mg/L (≈ 8 to 10.3 µM).

Regarding `COc1ccc(Nc2ncnc(Nc3ccc4[nH]ccc4c3)n2)cc1OC`, the IC50 is less than 0.4 mg/L.

As to `COc1ccc2c(c1)nc(NCc1ccccn1)n2-c1ncnc(Nc2cc(OC)c(OC)c(OC)c2)n1.COc1ccc2nc(NCc3ccccn3)n(-c3ncnc(Nc4cc(OC)c(OC)c(OC)c4)n3)c2c1`, the IC50 is more than 4.5 mg/L.

For `COc1ccc(Nc2ncnc(NCC(=O)c3ccccc3)n2)cc1OC`, the IC50 lay within 2.4 to 3.5 mg/L (≈ 6.57 to 9.58 µM).

`COC(=O)c1cccc(Nc2ncnc(-n3c(NCc4ccccc4)nc4ccccc43)n2)c1` came in with an IC50 of 0.4 to 2.4 mg/L (≈ 0.886 to 5.32 µM).

`COc1ccc(Nc2ncnc(NCCCN3CCN(C)CC3)n2)cc1OC` came in with an IC50 of more than 4.5 mg/L.

For the compound `O=c1[nH]c2ccccc2n1-c1ncnc(Nc2cccc3ncccc23)n1`, the IC50 is more than 4.5 mg/L.

Compound `COc1cc(Nc2ncnc(-n3c(Nc4ccccc4C)nc4ccccc43)n2)cc(OC)c1OC` came in with an IC50 of 3.5 to 4.5 mg/L (≈ 7.24 to 9.31 µM).

`COc1ccc(Nc2nc3ccccc3n2-c2ncnc(Nc3cc(OC)c(OC)c(OC)c3)n2)cc1OC` returned an IC50 of more than 4.5 mg/L.

On to `COc1cc(Nc2ncnc(Nc3ncncn3)n2)cc(OC)c1OC`, for which the IC50 is more than 4.5 mg/L.

In turn, `Clc1ccccc1Nc1ncnc(-n2cccc2)n1` gave an IC50 of more than 4.5 mg/L.

Compound `COc1cc(Nc2nc(F)nc(Nc3cccc(OC(F)(F)F)c3)n2)cc(OC)c1OC` showed an IC50 of less than 0.4 mg/L.

With `COc1cc(Nc2ncnc(-n3c(N[C@H](C)c4ccccc4)nc4ccccc43)n2)cc(OC)c1OC`, the IC50 was more than 4.5 mg/L.

Turning to `COc1cc(Nc2ncnc(Nc3ccc(S(=O)(=O)NC(C)=O)cc3)n2)cc(OC)c1OC`, the IC50 is more than 4.5 mg/L.

Regarding `c1ccc(-c2cc(Nc3ncnc(Nc4cccc(-c5cnco5)c4)n3)[nH]n2)cc1`, the IC50 was in the range of 0.4 to 2.4 mg/L (≈ 1.01 to 6.05 µM).

On to `COc1cc(Nc2ncnc(-n3c(Nc4cccc(F)c4)nc4ccccc43)n2)cc(OC)c1OC`, for which the IC50 lay within 2.4 to 3.5 mg/L (≈ 4.92 to 7.18 µM).

`COc1cc(Nc2ncnc(NCc3ccccc3)n2)cc(OC)c1OC`: the IC50 was less than 0.4 mg/L.

`COc1cc(Nc2ncnc(-c3cccnc3NCc3ccc(F)cc3)n2)cc(OC)c1OC` registered a concentration for half-maximal inhibition (IC50) of more than 4.5 mg/L.

Turning to `CN(c1cccc(Cl)c1)c1ncnc(Nc2ccc(OC(F)(F)F)cc2)n1`, the IC50 was 0.4 to 2.4 mg/L (≈ 1.01 to 6.06 µM).

`Cc1cccc(Nc2ncnc(Nc3ccc4[nH]ccc4c3)n2)c1` registered an IC50 of less than 0.4 mg/L.

Turning to `CNc1nc2ccccc2n1-c1ncnc(Nc2cc(OC)c(OC)c(OC)c2)n1`, the IC50 was more than 4.5 mg/L.

In the case of `COC(=O)c1ccc(-c2cc(Nc3ncnc(NC4=NC(=O)CS4)n3)[nH]n2)cc1`, the IC50 was 0.4 to 2.4 mg/L (≈ 0.975 to 5.85 µM).

Compound `OCCCNc1cc(-c2ncnc(Nc3cccc(OC(F)(F)C(F)F)c3)n2)ccn1` showed an IC50 of more than 4.5 mg/L.

For `COC(=O)c1cc(OC)c(OC)cc1Nc1ncnc(-n2c(N)nc3ccccc32)n1`, the IC50 was more than 4.5 mg/L.

`CN(c1cccc(Cl)c1)c1ncnc(Nc2ccc(Cl)c(Cl)c2)n1` showed an IC50 of more than 4.5 mg/L.

The compound `COc1cc(Nc2ncnc(-n3c(NC4CCc5ccccc54)nc4ccccc43)n2)cc(OC)c1OC` (stereo unspecified) registered an IC50 of 2.4 to 3.5 mg/L (≈ 4.71 to 6.87 µM).

Turning to `CCN(c1ccc(C)cc1)c1ncnc(Nc2cc(OC)c(OC)c(OC)c2)n1`, the IC50 was less than 0.4 mg/L.

In the case of `CC(C)Nc1ncccc1-c1ncnc(Nc2ccc(C(N)=O)cc2)n1`, the IC50 is more than 4.5 mg/L.

On to `COc1ccc(-c2cc(Nc3ncnc(Nc4cc(OC)c(OC)c(OC)c4)n3)[nH]n2)cc1`, for which the IC50 was 0.4 to 2.4 mg/L (≈ 0.89 to 5.34 µM).

Take `FC(F)C(F)(F)Oc1cccc(Nc2ncnc(-c3ccnc(N4CCCCC4)c3)n2)c1`: the IC50 is more than 4.5 mg/L.

Take `COc1cc(Nc2ncnc(-n3c(N(C)C)nc4ccccc43)n2)cc(OC)c1OC`: the IC50 is more than 4.5 mg/L.

In turn, `NC(=O)c1ccccc1Nc1ncnc(-n2c(N)nc3ccccc32)n1` returned an IC50 of more than 4.5 mg/L.

`COc1cc(Nc2ncnc(Nc3cc(OC)c(OC)c(OC)c3)n2)cc(OC)n1` showed an IC50 of 2.4 to 3.5 mg/L (≈ 5.79 to 8.45 µM).

`O=c1[nH]c2ccccc2n1-c1ncnc(Nc2cc(Cl)cc(Cl)c2)n1` displayed an IC50 of more than 4.5 mg/L.

`COc1cc(Nc2ncnc(Nc3ccc4[nH]ncc4c3)n2)cc(OC)c1OC` yielded an IC50 of less than 0.4 mg/L.

Consider `Nc1nc2ccccc2n1-c1ncnc(Nc2ccc(-c3cnco3)cc2)n1`, for which the IC50 is 0.4 to 2.4 mg/L (≈ 1.08 to 6.48 µM).

Compound `COc1ccc(Nc2ncnc(N(C)C3CCN(Cc4ccccc4)C3)n2)cc1OC` (stereo unspecified) returned an IC50 of more than 4.5 mg/L.

Regarding `CN(c1cccc(Cl)c1)c1ncnc(Nc2cccc(Cn3ccnn3)c2)n1`, the IC50 was less than 0.4 mg/L.

Turning to `c1ccc(Nc2ncccc2-c2ncnc(Nc3ccc4[nH]ncc4c3)n2)cc1`, the IC50 fell in the range of 3.5 to 4.5 mg/L (≈ 9.2 to 11.8 µM).

As for `O=c1[nH]c2ccccc2n1-c1ncnc(Nc2ccncn2)n1`, the IC50 was in the range of 2.4 to 3.5 mg/L (≈ 7.84 to 11.4 µM).

As for `Nc1ccc(Nc2ncnc(-c3ccccc3)n2)cc1`, the IC50 was more than 4.5 mg/L.

On to `COc1cc(Nc2ncnc(-n3c(NCc4ccc(O)cc4)nc4ccccc43)n2)cc(OC)c1OC`, for which the IC50 was more than 4.5 mg/L.

With `COc1cc(Nc2ncnc(-c3cccnc3NCc3ccccc3OC(F)(F)F)n2)cc(OC)c1OC`, the IC50 is more than 4.5 mg/L.

For `COc1cc(Nc2ncnc(-c3cccnc3Nc3ccc(C(C)=O)cc3)n2)cc(OC)c1OC`, the IC50 is more than 4.5 mg/L.

On to `Nc1nc2ccccc2n1-c1ncnc(Nc2cccnc2)n1`, for which the IC50 lay in the range of 2.4 to 3.5 mg/L (≈ 7.89 to 11.5 µM).

For `Nc1ncnc(Nc2cc(Cl)ccc2O)n1`, the IC50 is more than 4.5 mg/L.

In turn, `COc1cc(Nc2ncnc(-n3c(NCCc4ccccn4)nc4ccccc43)n2)cc(OC)c1OC` had an IC50 of more than 4.5 mg/L.

Compound `COc1cc(Nc2ncnc(-c3cccnc3Nc3ccccc3)n2)cc(OC)c1OC` had an IC50 of more than 4.5 mg/L.

As for `CN(c1cccc(Cl)c1)c1ncnc(NCCOCCO)n1`, the IC50 is more than 4.5 mg/L.

`COc1cc(Nc2ncnc(-n3c(Nc4ccc(C)cc4)nc4ccccc43)n2)cc(OC)c1OC` had an IC50 of more than 4.5 mg/L.

In turn, `CC(C)(C)OC(=O)Nc1ccc(Nc2ncnc(Nc3ccc(OCc4ccccc4)cc3)n2)cc1` yielded an IC50 of more than 4.5 mg/L.

`COc1ccc(CNc2ncccc2-c2ncnc(Nc3cc(OC)c(OC)c(OC)c3)n2)cc1` yielded an IC50 of more than 4.5 mg/L.

`c1ccc(CNc2nc3ccccc3n2-c2ncnc(Nc3cccc(Cn4ccnn4)c3)n2)nc1` displayed an IC50 of 2.4 to 3.5 mg/L (≈ 5.05 to 7.36 µM).

In the case of `COc1cc(Nc2ncnc(N3CCN(c4ccccn4)CC3)n2)cc(OC)c1OC`, the IC50 is more than 4.5 mg/L.

`COc1cc(Nc2ncnc(-c3ccc(NCCCN)nc3)n2)cc(OC)c1OC` showed an IC50 of more than 4.5 mg/L.

As for `NS(=O)(=O)c1ccc(Nc2ncnc(-n3c(=O)[nH]c4ccccc43)n2)cc1`, the IC50 is more than 4.5 mg/L.
